Data published in US20250230193A1, “CYCLIC COMPOUND HAVING SELECTIVE KRAS INHIBITORY EFFECT ON HRAS AND NRAS” (CHUGAI SEIYAKU KABUSHIKI KAISHA, priority 2022, published 2025).
Where a SMILES comes first, the peptide text is derived from it. Bridges are numbered along the chain shown (N, C = ends). [ ]: non-standard residue; d: D form. The star is where a group is joined. hPhe(3-Cl-4-CF3) = N[C@@H](CCc1ccc(C(F)(F)F)c(Cl)c1)C(=O)O; NPrPhe(4-CF3) = CCCN[C@@H](Cc1ccc(C(F)(F)F)cc1)C(=O)O; NMeGly(cPent) = CN[C@H](C(=O)O)C1CCCC1; NEtLeu = CCN[C@@H](CC(C)C)C(=O)O; NMeD = CN[C@@H](CC(=O)O)C(=O)O; NMeL = CN[C@@H](CC(C)C)C(=O)O; NMeNva = CCC[C@H](NC)C(=O)O; Morpholide = C1CN(*)CCO1; Ac4c = NC1(C(=O)O)CCC1; NPrGly = CCCNCC(=O)O; NEtG = CCNCC(=O)O; Sar = CNCC(=O)O

Experiments:
[1] = molecular target: GDP-bound NRAS wild-type protein (Homo sapiens, UniProt P01111); assay: Binding to NRAS by surface plasmon resonance (SPR), Single Cycle Kinetics; settings: KD ratio, GDP-bound NRAS wild-type vs GDP-bound KRAS wild-type, SPR
[2] = molecular target: GDP-bound HRAS wild-type protein (Homo sapiens, UniProt P01112); assay: Binding to HRAS by surface plasmon resonance (SPR), Single Cycle Kinetics; settings: KD ratio, GDP-bound HRAS wild-type vs GDP-bound KRAS wild-type, SPR
Sequence of GDP-bound HRAS wild-type protein (P01112 whole entry): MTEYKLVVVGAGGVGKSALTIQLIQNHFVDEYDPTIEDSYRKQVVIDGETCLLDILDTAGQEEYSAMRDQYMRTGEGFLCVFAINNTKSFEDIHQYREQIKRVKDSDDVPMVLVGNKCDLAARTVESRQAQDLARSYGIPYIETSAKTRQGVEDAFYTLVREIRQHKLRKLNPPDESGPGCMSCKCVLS

Sequence of GDP-bound NRAS wild-type protein (P01111 whole entry): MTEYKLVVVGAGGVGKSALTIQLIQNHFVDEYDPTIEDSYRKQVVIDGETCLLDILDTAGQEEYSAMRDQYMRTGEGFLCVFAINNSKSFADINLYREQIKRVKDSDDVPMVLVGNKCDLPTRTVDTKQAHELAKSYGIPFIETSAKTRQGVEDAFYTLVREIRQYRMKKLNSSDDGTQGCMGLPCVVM

Structure (SMILES)	NRAS/KRAS (ratio of KD value for NRAS to KD value for KRAS) [1]	HRAS/KRAS (ratio of KD value for HRAS to KD value for KRAS) [2]
CCC[C@H]1C(=O)N[C@@H]([C@@H](C)CC)C(=O)N(C)CC(=O)N(C)[C@H]2C/C=C\CCN(C2=O)[C@@H](Cc2ccc(C(F)(F)F)cc2)C(=O)N(C)CC(=O)N[C@@H](CCc2cc(F)c(C(F)(F)F)c(F)c2)C(=O)N(C)[C@@H](COC)C(=O)NC2(CC(C)(C)C2)C(=O)N(C)[C@@H](C2CCCC2)C(=O)N(C)[C@H](C(=O)N(C)C)CC(=O)N1C [PP1936]	AA (a compound having 20 or more is denoted as AA)	A (a compound having 10 or more and less than 20 is denoted as A)
CCO[C@@H]1C[C@H]2C(=O)NC(C)(C)C(=O)N(C)[C@@H](C3CCCC3)C(=O)N(C)[C@H](C(=O)N(C)CC)CC(=O)N(C)[C@@H](CC(C)C)C(=O)N[C@@H]([C@@H](C)CC)C(=O)N(C)CC(=O)N(C)[C@H]3C/C=C\CCN(C3=O)[C@@H](Cc3ccc(C(F)(F)F)cc3)C(=O)N(C)CC(=O)N[C@@H](CCc3cc(F)c(C(F)(F)F)c(F)c3)C(=O)N2C1 [PP1937]	A (a compound having 10 or more and less than 20 is denoted as A)	A (a compound having 10 or more and less than 20 is denoted as A)
CCCN(C)C(=O)[C@@H]1CC(=O)N(C)[C@@H](CC(C)C)C(=O)N[C@@H]([C@@H](C)CC)C(=O)N(C)CC(=O)N(C)[C@H]2C/C=C\CCN(C2=O)[C@@H](Cc2ccc(C(F)(F)F)cc2)C(=O)N(C)CC(=O)N[C@@H](CCc2cc(F)c(C(F)(F)F)c(F)c2)C(=O)N2C[C@H](OCC)C[C@H]2C(=O)NC2(COC2)C(=O)N(C)[C@@H](C2CCCC2)C(=O)N1C [PP1938]	AA (a compound having 20 or more is denoted as AA)	A (a compound having 10 or more and less than 20 is denoted as A)
CCC[C@H]1C(=O)N[C@@H]([C@@H](C)CC)C(=O)N(C)CC(=O)N(C)[C@H]2C/C=C\CCN(C2=O)[C@@H](Cc2ccc(C(F)(F)F)cc2)C(=O)N(C)CC(=O)N[C@@H](CCc2cc(F)c(C(F)(F)F)c(F)c2)C(=O)N2C[C@H](OCC)C[C@H]2C(=O)NC2(CC(C)(C)C2)C(=O)N(C)[C@@H]([C@@H](C)CC)C(=O)N(C)[C@H](C(=O)N(C)C)CC(=O)N1C [PP1941]	A (a compound having 10 or more and less than 20 is denoted as A)	A (a compound having 10 or more and less than 20 is denoted as A)
CCO[C@@H]1C[C@H]2C(=O)NC3(CC(C)(C)C3)C(=O)N(C)[C@@H](C3CCCCC3)C(=O)N(C)[C@H](C(=O)N(C)C)CC(=O)N(C)[C@@H](CC)C(=O)N[C@@H]([C@@H](C)CC)C(=O)N(C)CC(=O)N(C)[C@H]3C/C=C\CCN(C3=O)[C@@H](Cc3ccc(C(F)(F)F)cc3)C(=O)N(C)CC(=O)N[C@@H](CCc3cc(F)c(C(F)(F)F)c(F)c3)C(=O)N2C1 [PP1942]	AA (a compound having 20 or more is denoted as AA)	A (a compound having 10 or more and less than 20 is denoted as A)
CCC[C@H]1C(=O)N[C@@H]([C@@H](C)CC)C(=O)N(C)CC(=O)N(C)[C@H]2C/C=C\CCN(C2=O)[C@@H](Cc2ccc(C(F)(F)F)cc2)C(=O)N(C)CC(=O)N[C@@H](CCc2cc(F)c(C(F)(F)F)c(F)c2)C(=O)N2C[C@H](OCC)C[C@H]2C(=O)NC2(CC(C)(C)C2)C(=O)N(C)[C@@H](C2CCCC2)C(=O)N(C)[C@H](C(=O)N2CCC2)CC(=O)N1C [PP1943]	A (a compound having 10 or more and less than 20 is denoted as A)	B (a compound having 3 or more and less than 10 is denoted as B)
CCO[C@@H]1C[C@H]2C(=O)NC3(CC(C)(C)C3)C(=O)N(C)[C@@H](C3CCCC3)C(=O)N(C)[C@H](C(=O)N3CCCC3)CC(=O)N(C)[C@@H](CC)C(=O)N[C@@H]([C@@H](C)CC)C(=O)N(C)CC(=O)N(C)[C@H]3C/C=C\CCN(C3=O)[C@@H](Cc3ccc(C(F)(F)F)cc3)C(=O)N(C)CC(=O)N[C@@H](CCc3cc(F)c(C(F)(F)F)c(F)c3)C(=O)N2C1 [PP1944]	A (a compound having 10 or more and less than 20 is denoted as A)	A (a compound having 10 or more and less than 20 is denoted as A)
CCO[C@@H]1C[C@H]2C(=O)NC3(CC(C)(C)C3)C(=O)N(C)[C@@H](C3CCCC3)C(=O)N(C)[C@H](C(=O)N3CCCCC3)CC(=O)N(C)[C@@H](CC)C(=O)N[C@@H]([C@@H](C)CC)C(=O)N(C)CC(=O)N(C)[C@H]3C/C=C\CCN(C3=O)[C@@H](Cc3ccc(C(F)(F)F)cc3)C(=O)N(C)CC(=O)N[C@@H](CCc3cc(F)c(C(F)(F)F)c(F)c3)C(=O)N2C1 [PP1945]	AA (a compound having 20 or more is denoted as AA)	A (a compound having 10 or more and less than 20 is denoted as A)
CCCN1C(=O)CN(C)C(=O)CN(C)C(=O)[C@H]([C@@H](C)CC)NC(=O)[C@H](CC(C)C)N(CC)C(=O)C[C@@H](C(=O)N2CCOCC2)N(C)C(=O)[C@H](C2CCCC2)N(C)C(=O)C2(CCC2)NC(=O)[C@@H]2CCCN2C(=O)[C@H](CCc2ccc(C(F)(F)F)c(Cl)c2)NC(=O)CN(C)C(=O)[C@@H]1Cc1ccc(C(F)(F)F)cc1 [PP1946] ([NEtLeu]I[Sar][Sar][NPrPhe(4-CF3)][Sar][hPhe(3-Cl-4-CF3)]P[Ac4c][NMeGly(cPent)][NMeD]-Morpholide; lactam N-11)	B (a compound having 3 or more and less than 10 is denoted as B)	C (A compound having a KD ratio of 0.1 or more and less than 3 is denoted as C)
CCC[C@H]1C(=O)N[C@@H]([C@@H](C)CC)C(=O)N(CCC)CC(=O)N(C)CC(=O)N(CCC)[C@@H](Cc2ccc(C(F)(F)F)cc2)C(=O)N(C)CC(=O)N[C@@H](CCc2ccc(C(F)(F)F)c(Cl)c2)C(=O)N2CCC[C@H]2C(=O)NC2(CCC2)C(=O)N(C)[C@@H](C2CCCC2)C(=O)N(C)[C@H](C(=O)N2CCOCC2)CC(=O)N1C [PP1947] ([NMeNva]I[NPrGly][Sar][NPrPhe(4-CF3)][Sar][hPhe(3-Cl-4-CF3)]P[Ac4c][NMeGly(cPent)][NMeD]-Morpholide; lactam N-11)	B (a compound having 3 or more and less than 10 is denoted as B)	B (a compound having 3 or more and less than 10 is denoted as B)
CCCN1C(=O)CN(CC)C(=O)CN(C)C(=O)[C@H]([C@@H](C)CC)NC(=O)[C@H](CC(C)C)N(C)C(=O)C[C@@H](C(=O)N2CCOCC2)N(C)C(=O)[C@H](C2CCCC2)N(C)C(=O)C2(CCC2)NC(=O)[C@@H]2CCCN2C(=O)[C@H](CCc2ccc(C(F)(F)F)c(Cl)c2)NC(=O)CN(C)C(=O)[C@@H]1Cc1ccc(C(F)(F)F)cc1 [PP1948] ([NMeL]I[Sar][NEtG][NPrPhe(4-CF3)][Sar][hPhe(3-Cl-4-CF3)]P[Ac4c][NMeGly(cPent)][NMeD]-Morpholide; lactam N-11)	C (A compound having a KD ratio of 0.1 or more and less than 3 is denoted as C)	C (A compound having a KD ratio of 0.1 or more and less than 3 is denoted as C)
